From article PMC13110267, “Fair and Square: Design, Synthesis and Biological Evaluations of Squaric Acid Derivatives as Novel HDAC8 Inhibitors” (Chemmedchem, 2026) come the findings set out here.

One assay addresses T1, HDAC8 (Homo sapiens, UniProt Q9BY41).
T1 construct: made in house
T1 sequence (Q9BY41 1-377): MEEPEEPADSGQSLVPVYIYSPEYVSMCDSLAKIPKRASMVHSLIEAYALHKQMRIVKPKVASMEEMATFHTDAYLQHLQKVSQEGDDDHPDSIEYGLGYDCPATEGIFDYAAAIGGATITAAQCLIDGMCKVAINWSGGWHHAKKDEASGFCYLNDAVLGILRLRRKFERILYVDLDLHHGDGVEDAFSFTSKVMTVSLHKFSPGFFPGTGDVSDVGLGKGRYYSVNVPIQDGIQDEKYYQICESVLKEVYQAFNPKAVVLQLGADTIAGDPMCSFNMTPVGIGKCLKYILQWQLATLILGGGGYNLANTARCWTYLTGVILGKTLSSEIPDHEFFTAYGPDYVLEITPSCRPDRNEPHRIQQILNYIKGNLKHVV
The assay can be described thus: HDAC8 fluorometric enzyme inhibition assay, purified recombinant enzyme, 10-point dose-response. Type of assay: biochemical. Particulars: Table 1; purified recombinant HDAC8 10 nM; mean of three independent experiments; >35 µM = weak inhibitor. The method, then:
(§1) Therefore, the first stage of biological evaluation focused on determining inhibitory concentration (IC50) values of the squaric acid derivatives against HDAC8 and HDAC4 using purified recombinant enzymes. Enzymatic inhibition was quantified using 10‐point dose–response assays, from which IC50 values were calculated (Table 1). HDAC8 and HDAC4 were employed at concentrations of 10 nM and 1 nM, respectively, while other zinc‐dependent HDAC isoenzymes were used at approximate concentrations of ∼1 nM, reflecting the purity of the commercially available preparations. […]
(§2) 1.3.1 HDAC Assay General Inform ation
(§3) The activity of HDAC1, HDAC4, HDAC6, HDAC8, and HDAC11 was determined using a fluorometric assay in black half-area 96-well microplates (Greiner Bio -One , Germany). HDAC1 (#50051) and HDAC 6 (#50006) were purchased from BPS Bioscience.
(§4) HDAC4, HDAC8 and HDAC11 were produced in house as previously described.7- 9 The enzymes were pre-incubated with serial dilutions of the compounds for 1 hour at 30 °C in either assay buffer (25 mM Tris-HCl, 75 mM KCl and 0.001% (v/v) Pluronic F -127, pH 8.0) or MAL buffer (137 m M NaCl, 50 mM Tris-HCl, 2.7 mM KCl, 1 mM MgCl₂, 0 .5 mg/ml bovine serum albumin (BSA), pH 8.0b) for HDAC11. The enzyme reaction was initiated by the addition of the following substrates: 20 µM Boc-L ys(T FA) -AMC for HDAC4 and HDAC8; 80 µM Boc-L ys(T FA) -AMC for HDAC11; and 50 µM Boc -Lys(Ac)-AMC for HDAC1 and HDAC6. After an incubation period of 60 minutes, the reaction was terminated by the addition of 1.7 µM 9,9,9-trifluoro-8-oxo-N -phenyl -nonanamide (SATFMK) for […]
(§5) HDAC6, and 1 µM 1,1-dimethyl -2-[5-(trifluoromethyl)pyrazin-2-yl]isoindoline -4-carbohydroxamic acid (FT895) for HDAC11. The deacetylated substrate was then cleaved into fluorescent 7-amino -4- methylcoumarin (AMC) by the addition of 0.42 mg/mL trypsin.
(§6) Measurements were performed using a PHERAstar FS fluorescence microplate reader (BMG LABTECH) with excitation at 360 nm and emission at 460 nm. The normalised enzyme activities were plotted against the respective ligand concentration and fitted with a four-parameter logistic function using GraphPad Prism 6 software.

Another assay deals with T2, HDAC4 (Homo sapiens, UniProt P56524).
T2 construct: made in house
The assay can be described thus: HDAC4 fluorometric enzyme inhibition assay, purified recombinant enzyme, 10-point dose-response. The class given is biochemical. The note with it: Table 1; purified recombinant HDAC4 1 nM; mean of three independent experiments; >35 µM = weak inhibitor. How it is done: as §1, §2, §3, §4, §5, §6

Molecules are shown by their SMILES.

T2 sequence (P56524 whole entry): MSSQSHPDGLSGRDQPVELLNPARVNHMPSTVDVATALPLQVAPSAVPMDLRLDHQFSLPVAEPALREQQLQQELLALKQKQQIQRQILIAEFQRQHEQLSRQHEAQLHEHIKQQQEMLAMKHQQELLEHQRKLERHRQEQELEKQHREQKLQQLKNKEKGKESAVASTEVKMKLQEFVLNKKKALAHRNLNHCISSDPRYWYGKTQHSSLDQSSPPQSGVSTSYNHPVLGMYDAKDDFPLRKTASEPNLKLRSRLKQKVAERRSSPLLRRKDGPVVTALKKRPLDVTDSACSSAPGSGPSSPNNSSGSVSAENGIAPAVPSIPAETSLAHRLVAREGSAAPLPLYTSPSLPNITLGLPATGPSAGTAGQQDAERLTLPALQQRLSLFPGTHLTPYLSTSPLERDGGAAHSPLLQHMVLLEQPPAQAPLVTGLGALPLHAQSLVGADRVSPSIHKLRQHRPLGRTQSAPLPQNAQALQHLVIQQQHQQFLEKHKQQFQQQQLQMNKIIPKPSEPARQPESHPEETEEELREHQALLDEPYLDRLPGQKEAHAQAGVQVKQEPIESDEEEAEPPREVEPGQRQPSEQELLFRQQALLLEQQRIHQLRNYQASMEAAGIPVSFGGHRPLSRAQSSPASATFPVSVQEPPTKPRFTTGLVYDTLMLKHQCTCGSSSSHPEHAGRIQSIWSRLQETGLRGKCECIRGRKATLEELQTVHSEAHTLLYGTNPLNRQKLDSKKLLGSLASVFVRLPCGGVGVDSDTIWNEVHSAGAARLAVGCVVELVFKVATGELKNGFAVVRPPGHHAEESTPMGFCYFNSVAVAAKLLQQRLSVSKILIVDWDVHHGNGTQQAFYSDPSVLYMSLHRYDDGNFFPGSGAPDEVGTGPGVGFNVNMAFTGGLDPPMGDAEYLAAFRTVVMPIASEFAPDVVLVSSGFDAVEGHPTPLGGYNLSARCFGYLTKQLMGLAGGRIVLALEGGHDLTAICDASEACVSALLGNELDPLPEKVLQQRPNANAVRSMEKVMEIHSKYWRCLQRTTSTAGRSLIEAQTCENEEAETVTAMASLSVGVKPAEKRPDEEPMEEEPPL

Take `CCOc1c(Nc2ccc(O)cc2)c(=O)c1=O` [Compound 9i]: the IC50 on HDAC8 and at HDAC4 was greater than 35 µM each time.

For `CCOc1c(Nc2cccc(O)c2)c(=O)c1=O` [9 h], the half-maximal inhibitory concentration (IC50) at HDAC8 and at HDAC4 was greater than 35 µM in each case.

Turning to `CCOc1c(Nc2cccc(C(F)(F)F)c2)c(=O)c1=O` [Compound 9m], the concentration for half-maximal inhibition (IC50) at HDAC8 and on HDAC4 was greater than 35 µM each time.

Turning to `CCOc1c(N(C(C)C)C(C)C)c(=O)c1=O` [Compound 11], the half-maximal inhibitory concentration (IC50) on HDAC8 and on HDAC4 was greater than 35 µM in each case.

`CCOc1c(NCc2cccc(Cl)c2)c(=O)c1=O` [Compound 10c]: the IC50 on HDAC8 and at HDAC4 was greater than 35 µM each time.

On to `CN(c1ccccc1)c1c(N(C)c2ccccc2)c(=O)c1=O` [Compound 14a], for which the IC50 at HDAC8 and at HDAC4 was greater than 35 µM throughout.

Turning to `CCOc1c(Nc2cccc(Br)c2)c(=O)c1=O` [Compound 9e], the half-maximal inhibitory concentration (IC50) on HDAC8 and on HDAC4 was greater than 35 µM each time.

As for `CCOc1c(N2CCCc3ccc(Br)cc32)c(=O)c1=O` [Compound 12k], the IC50 at HDAC8 and at HDAC4 was greater than 35 µM each time.

For `CCOc1c(Nc2cccc(OC)c2)c(=O)c1=O` [Compound 9k], the half-maximal inhibitory concentration (IC50) at HDAC8 and at HDAC4 was greater than 35 µM in each case.

As for `CCOc1c(Nc2ccccc2O)c(=O)c1=O` [Compound 9g], the IC50 at HDAC8 and on HDAC4 was greater than 35 µM throughout.

Consider `CCOc1c(NCc2ccc(Cl)cc2)c(=O)c1=O` [Compound 10d], for which the concentration for half-maximal inhibition (IC50) at HDAC8 and at HDAC4 was greater than 35 µM throughout.

Regarding `CC(C)N1CCN(C(C)C)c2c1c(=O)c2=O` [Compound 17a], the half-inhibitory concentration (IC50) at HDAC8 and at HDAC4 was greater than 35 µM throughout.

In the case of `CCOc1c(N2CCSCC2)c(=O)c1=O` [Compound 12g], the IC50 on HDAC8 and at HDAC4 was greater than 35 µM each time.

With `CCOc1c(N2C[C@@H](C)O[C@@H](C)C2)c(=O)c1=O` [Compound 12f], the IC50 on HDAC8 and on HDAC4 was greater than 35 µM throughout.

For `CCOc1c(NCc2ccccc2)c(=O)c1=O` [Compound 10a], the IC50 at HDAC8 and at HDAC4 was greater than 35 µM in each case.

Take `CCOc1c(N2CCSC2)c(=O)c1=O` [Compound 12i]: the IC50 at HDAC8 and on HDAC4 was greater than 35 µM each time.

As for `CCOc1c(N2CCS(=O)(=O)CC2)c(=O)c1=O` [12 h], the IC50 on HDAC8 and at HDAC4 was greater than 35 µM in each case.

`O=c1c(Nc2ccccc2)c(Nc2ccccc2)c1=O` [Compound 13a]: the IC50 on HDAC8 was greater than 35 µM; at HDAC4 it was 14 ± 2 µM.

As for `CCOc1c(Nc2ccccc2OC)c(=O)c1=O` [Compound 9j], the IC50 on HDAC8 and at HDAC4 was greater than 35 µM in each case.

On to `CCOc1c(Nc2ccc(C)cc2)c(=O)c1=O` [Compound 9q], for which the half-maximal inhibitory concentration (IC50) at HDAC8 and on HDAC4 was greater than 35 µM each time.

For the molecule `CCOc1c(Nc2ccc(Br)cc2)c(=O)c1=O` [Compound 9f], the IC50 at HDAC8 and at HDAC4 was greater than 35 µM each time.

For the molecule `CCOc1c(NCc2cccc(Br)c2)c(=O)c1=O` [Compound 10f], the half-inhibitory concentration (IC50) at HDAC8 and on HDAC4 was greater than 35 µM each time.

Take `CCOc1c(N2CCCCC2)c(=O)c1=O` [Compound 12c]: the IC50 on HDAC8 and on HDAC4 was greater than 35 µM in each case.

For the molecule `CCOc1c(N(C)c2ccc(Br)cc2)c(=O)c1=O` [Compound 9s], the 50% inhibitory concentration (IC50) on HDAC8 and at HDAC4 was greater than 35 µM each time.

For `CCOc1c(N2CCCC2)c(=O)c1=O` [Compound 12b], the 50% inhibitory concentration (IC50) at HDAC8 and on HDAC4 was greater than 35 µM in each case.

As for `CCOc1c(NCc2ccccc2Cl)c(=O)c1=O` [Compound 10b], the 50% inhibitory concentration (IC50) on HDAC8 and on HDAC4 was greater than 35 µM throughout.

In the case of `O=c1c(N(Cc2ccccc2)c2ccc(Br)cc2)c(N(Cc2ccccc2)c2ccc(Br)cc2)c1=O` [Compound 15], the concentration for half-maximal inhibition (IC50) on HDAC8 and at HDAC4 was greater than 35 µM each time.

With `CCOc1c(Nc2cccc(C(=O)O)c2)c(=O)c1=O` [Compound 9r], the IC50 at HDAC8 and on HDAC4 was greater than 35 µM throughout.

Take `CCOc1c(Nc2ccc(C(F)(F)F)cc2)c(=O)c1=O` [Compound 9n]: the IC50 on HDAC8 and at HDAC4 was greater than 35 µM throughout.

Regarding `CN1CCCN(C)c2c1c(=O)c2=O` [Compound 17b], the IC50 at HDAC8 and at HDAC4 was greater than 35 µM throughout.

Turning to `CCOc1c(N2CCC2)c(=O)c1=O` [Compound 12a], the half-maximal inhibitory concentration (IC50) at HDAC8 and at HDAC4 was greater than 35 µM each time.

`CCOc1c(N(C)Cc2ccc(Br)cc2)c(=O)c1=O` [10 h]: the concentration for half-maximal inhibition (IC50) at HDAC8 and on HDAC4 was greater than 35 µM in each case.

`CCOc1c(NCc2ccc(Br)cc2)c(=O)c1=O` [Compound 10g]: the 50% inhibitory concentration (IC50) on HDAC8 and at HDAC4 was greater than 35 µM in each case.

As for `CCOc1c(Nc2ccccc2C)c(=O)c1=O` [Compound 9o], the IC50 on HDAC8 and on HDAC4 was greater than 35 µM throughout.

Consider `CCOc1c(Nc2cccc(Cl)c2)c(=O)c1=O` [Compound 9c], for which the IC50 at HDAC8 and on HDAC4 was greater than 35 µM in each case.

In the case of `O=c1c(N2CCCCC2)c(N2CCCCC2)c1=O` [Compound 16b], the concentration for half-maximal inhibition (IC50) on HDAC8 and at HDAC4 was greater than 35 µM in each case.

Consider `CCOc1c(Nc2ccc(Cl)cc2)c(=O)c1=O` [Compound 9d], for which the IC50 at HDAC8 and at HDAC4 was greater than 35 µM in each case.

With `CCOc1c(Nc2ccc(OC)cc2)c(=O)c1=O` [Compound 9l], the IC50 at HDAC8 and at HDAC4 was greater than 35 µM each time.

Take `CCOc1c(N2CCN(C(=O)OC(C)(C)C)CC2)c(=O)c1=O` [Compound 12j]: the 50% inhibitory concentration (IC50) at HDAC8 and on HDAC4 was greater than 35 µM throughout.

On to `CCOc1c(Nc2ccccc2)c(=O)c1=O` [Compound 9a], for which the IC50 on HDAC8 and on HDAC4 was greater than 35 µM throughout.

Regarding `CCOc1c(Nc2cccc(C)c2)c(=O)c1=O` [Compound 9p], the IC50 at HDAC8 and at HDAC4 was greater than 35 µM throughout.

For the molecule `O=c1c(N2CCOCC2)c(N2CCOCC2)c1=O` [Compound 16a], the IC50 on HDAC8 and at HDAC4 was greater than 35 µM each time.

With `CCOc1c(N2CCOCC2)c(=O)c1=O` [Compound 12e], the IC50 on HDAC8 and at HDAC4 was greater than 35 µM in each case.

As to `CCOc1c(N2CCCCCC2)c(=O)c1=O` [Compound 12d], the half-maximal inhibitory concentration (IC50) at HDAC8 and at HDAC4 was greater than 35 µM each time.

For the molecule `CCOc1c(NCc2ccccc2Br)c(=O)c1=O` [Compound 10e], the IC50 on HDAC8 and at HDAC4 was greater than 35 µM throughout.

Consider `CN(c1ccc(Br)cc1)c1c(N(C)c2ccc(Br)cc2)c(=O)c1=O` [Compound 14c], for which the IC50 at HDAC8 and at HDAC4 was greater than 35 µM throughout.
